Assay results as given in patent US20030212104A1, “Treatment of diabetes and diabetic complications with NHE-1 inhibitors” (Pfizer Inc., priority 2002, published 2003).

Test system: diabetic ob/ob mice
Assay: Antidiabetic effect in diabetic ob/ob mice (plasma glucose, insulin, triglyceride)
Format: in vivo
Source text: Five to eight week old male C57BLU6J-ob/ob mice (obtained from Jackson Laboratory, Bar Harbor, Me.) are housed five per cage under standard animal care practices. After a one week acclimation period, the animals are weighed and 25 microliters of blood are collected from the retro-orbital sinus prior to any treatment. The blood sample is immediately diluted 1:5 with saline containing 0.025% sodium heparin, and held on ice for metabolite analysis. Animals are assigned to treatment groups so that each group has a similar mean for plasma glucose concentration. After group assignment, animals are dosed orally each day for four days with the vehicle consisting of either: (1) 0.25% w/v methyl cellulose in water without pH adjustment; or (2) 0.1% Pluronic® P105 Block Copolymer Surfactant (BASF Corporation, Parsippany, N.J.) in 0.1% saline without pH adjustment. On day 5, the animals are weighed again and then dosed orally with a test compound or the vehicle alone. All compounds are administered in vehicle consisting of either: (1) 0.25% w/v methyl cellulose in water; or 3) neat PEG 400 without pH adjustment; (2) 10% DMSO/O.1% Pluronic® in 0.1% saline without pH adjustment; or 3) neat PEG 400 without pH adjustment. The animals are then bled from the retro-orbital sinus three hours later for determination of blood metabolite levels. The freshly collected samples are centrifuged for two minutes at 10,000×g at room temperature. The supernatant is analyzed for glucose, for example, by the Abbott VP™ (Abbott Laboratories, Diagnostics Division, Irving, Tex.) and VP Super System® Autoanalyzer (Abbott Laboratories, Irving, Tex.), or by the Abbott Spectrum CCX™ (Abbott Laboratories, Irving, Tex.) using the A-Gent™ Glucose-UV Test reagent system (Abbott Laboratories, Irving, Tex.) (a modification of the method of Richterich and Dauwalder, Schweizerische Medizinische Wochenschrift, 101: 860 (1971)) (hexokinase method) using a 100 mg/dl standard. Plasma glucose is then calculated by the equation: Plasma glucose (mg/dl)=Sample value×8.14
where 8.14 is the dilution factor, adjusted for plasma hematocrit (assuming the hematocrit is 44%).
Hypoglycemic activity of the test compounds is determined by statistical analysis (unpaired t-test) of the mean plasma glucose concentration between the test compound group and vehicle-treated group on day 5. The above assay carried out with a range of doses of a test compound allows the determination of an approximate minimal effective dose (MED) value for the in vivo reduction of plasma glucose concentration.
Five to eight week old male C57BL/6J-ob/ob mice (obtained from Jackson Laboratory, Bar Harbor, Me.) are housed five per cage under standard animal care practices and fed standard rodent diet ad libitum. After a one week acclimation period, the animals are weighed and 25 microliters of blood are collected from the retro-orbital sinus prior to any treatment. The blood sample is immediately diluted 1:5 with saline containing 0.025% sodium heparin, and held on ice for plasma glucose analysis. Animals are assigned to treatment groups so that each group has a similar mean for plasma glucose concentration. The compound to be tested is administered by oral gavage as an about 0.02% to 2.0% solution (weight/volume (w/v)) in either (1) 10% DMSO/0.1% Pluronic® P105 Block Copolymer Surfactant (BASF Corporation, Parsippany, N.J.) in 0.1% saline without pH adjustment or (2) 0.25% w/v methylcellulose in water without pH adjustment. Alternatively, the compound to be tested can be administered by oral gavage dissolved in or in suspension in neat PEG 400. Single daily dosing (s.i.d.), twice daily dosing (b.i.d.) or other dosing regimen is maintained for 1 to, for example, 15 days. Control mice receive the 10% DMSO/0.1% Pluronic® P105 in 0.1 % saline without pH adjustment or the 0.25% w/v methylcellulose in water without pH adjustment, or the neat PEG 400 without pH adjustment. […]

[1] = Study 3 conclusion: diabetic ob/ob mice, 20 mg/kg bid for seven days
[2] = Study 1 conclusion: diabetic ob/ob mice, 20 mg/kg qd for five days

Row | Compound | Day 5, 3h post-dose plasma insulin concentration (Study 2: ob/ob mice n=10, 20 mg/kg bid for four days plus AM dose on fifth day, mean ± SD, vehicle control 10.0 ± 6.8) [µg/L] | Day 5, 3h post-dose plasma glucose concentration (Study 2: ob/ob mice n=10, 20 mg/kg bid for four days plus AM dose on fifth day, mean ± SD, vehicle control 322 ± 72, p = 0.0003) [mg/dL] | Plasma glucose concentration compared to the vehicle control group (Study 2 conclusion: diabetic ob/ob mice, 20 mg/kg bid for four days) | Day 8, 3h post-dose plasma triglyceride concentration (Study 3: ob/ob mice n=15, 20 mg/kg bid for seven days plus AM dose on eighth day, mean ± SD, vehicle control 167 ± 44, p = 0.0002) [mg/dL] | Day 8, 3h post-dose plasma glucose concentration (Study 3: ob/ob mice n=15, 20 mg/kg bid for seven days plus AM dose on eighth day, mean ± SD, vehicle control 397 ± 134, p = 0.0001) [mg/dL] | Plasma glucose concentration compared to the vehicle control group [1] | Plasma insulin concentration compared to the vehicle control group [1] | Plasma triglyceride concentration compared to the vehicle control group [1] | Day 5, 3h post-dose plasma insulin concentration (Study 1: ob/ob mice n=10, 20 mg/kg qd for five days, mean ± SD, vehicle control 57.7 ± 24.5, p = 0.000331) [µg/L] | Day 5, 3h post-dose plasma glucose concentration (Study 1: ob/ob mice n=10, 20 mg/kg qd for five days, mean ± SD, vehicle control 482 ± 139, p = 0.0498) [mg/dL] | Plasma glucose concentration compared to the vehicle control group [2] | Plasma insulin concentration compared to the vehicle control group [2]
1 | [1-(2-trifluoromethyl-4-chlorophenyl)-5-cyclopropyl-1H-pyrazole-4-carbonyl]-guanidine | 11.1 ± 9.0 | 195 ± 50 | significantly reduced | 107 ± 24 | 204 ± 69 | significantly reduced | significantly reduced | significantly reduced |  |  |  | 
2 | N=C(N)NC(=O)c1cnn(-c2cccc3ncccc23)c1C1CC1 [[5-cyclopropyl-1-(quinolin-5-yl)-1H-pyrazole-4-carbonyl]guanidine] |  |  |  |  |  |  |  |  | 20.5 ± 10.3 | 371 ± 90 | significantly reduced | significantly reduced
